Reference: the supplement of paper PMC10307832

Legend:
Test in all cases: relative viability (nuclei count vs DMSO), 5 days (fraction); higher = more cells survive
KN-93 + Navitoclax = compound: CN(C/C=C/C1=CC=C(C=C1)Cl)CC2=CC=CC=C2N(CCO)S(=O)(=O)C3=CC=C(C=C3)OC [KN-93] + CC1(C)CCC(c2ccc(Cl)cc2)=C(CN2CCN(c3ccc(C(=O)NS(=O)(=O)c4ccc(N[C@H](CCN5CCOCC5)CSc5ccccc5)c(S(=O)(=O)C(F)(F)F)c4)cc3)CC2)C1 [Navitoclax] (partner 0.5 µM)
Procedure, shortened: (§1)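 Relative viability divides the nuclei count in treated wells by that in vehicle wells. Lung cancer cell lines were seeded in 1536-well plates, dosed by pin tool the next day, and fixed and stained after 5 days in one step with final 0.05% Triton X-100, 1% formaldehyde and 1 ug/ml Hoechst. Dosing was a single drug or a fixed anchor-drug dose plus five library-drug doses (not always all listed) in √10 steps, and values are medians of duplicate plates imaged at 4×.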

KN-93 + Lapatinib = compound: CN(C/C=C/C1=CC=C(C=C1)Cl)CC2=CC=CC=C2N(CCO)S(=O)(=O)C3=CC=C(C=C3)OC [KN-93] + CS(=O)(=O)CCNCc1ccc(-c2ccc3ncnc(Nc4ccc(OCc5cccc(F)c5)c(Cl)c4)c3c2)o1 [Lapatinib] (partner 2 µM)
Procedure, shortened: as §1

KN-93 + Bortezomib = compound: CN(C/C=C/C1=CC=C(C=C1)Cl)CC2=CC=CC=C2N(CCO)S(=O)(=O)C3=CC=C(C=C3)OC [KN-93] + CC(C)C[C@H](NC(=O)[C@H](Cc1ccccc1)NC(=O)c1cnccn1)B(O)O [Bortezomib] (partner 0.002 µM)
Procedure, shortened: as §1

KN-93 + Pictilisib = compound: CN(C/C=C/C1=CC=C(C=C1)Cl)CC2=CC=CC=C2N(CCO)S(=O)(=O)C3=CC=C(C=C3)OC [KN-93] + CS(=O)(=O)N1CCN(Cc2cc3nc(-c4cccc5[nH]ncc45)nc(N4CCOCC4)c3s2)CC1 [Pictilisib] (partner 1 µM)
Procedure, shortened: as §1

KN-93 + OSI-027 = compound: CN(C/C=C/C1=CC=C(C=C1)Cl)CC2=CC=CC=C2N(CCO)S(=O)(=O)C3=CC=C(C=C3)OC [KN-93] + COc1cccc2cc(-c3nc([C@H]4CC[C@H](C(=O)O)CC4)n4ncnc(N)c34)[nH]c12 [OSI-027] (partner 0.5 µM)
Procedure, shortened: as §1

Row | Cell Line | relative viability (KN-93 + Navitoclax; first compound 0.08 µM) | relative viability (KN-93 + Navitoclax; first compound 0.253 µM) | relative viability (KN-93 + Navitoclax; first compound 2.53 µM) | relative viability (KN-93 + Navitoclax; first compound 8 µM) | relative viability (KN-93 + Lapatinib; first compound 0.08 µM) | relative viability (KN-93 + Lapatinib; first compound 0.253 µM) | relative viability (KN-93 + Lapatinib; first compound 2.53 µM) | relative viability (KN-93 + Lapatinib; first compound 8 µM) | relative viability (KN-93 + Bortezomib; first compound 0.08 µM) | relative viability (KN-93 + Bortezomib; first compound 0.253 µM) | relative viability (KN-93 + Bortezomib; first compound 2.53 µM) | relative viability (KN-93 + Bortezomib; first compound 8 µM) | relative viability (KN-93 + Pictilisib; first compound 0.253 µM) | relative viability (KN-93 + Pictilisib; first compound 2.53 µM) | relative viability (KN-93 + Pictilisib; first compound 8 µM) | relative viability (KN-93 + OSI-027; first compound 0.08 µM) | relative viability (KN-93 + OSI-027; first compound 0.253 µM) | relative viability (KN-93 + OSI-027; first compound 2.53 µM) | relative viability (KN-93 + OSI-027; first compound 8 µM) | relative viability (KN-93 + Pictilisib; first compound 0.08 µM)
1 | PC-14 | 0.851 | 1 | 1.21 | 0.977 | 0.305 | 0.227 | 0.318 | 0.307 | 0.686 | 0.899 | 0.933 | 0.734 | 0.531 | 0.618 | 0.349 | 0.522 | 0.892 | 0.806 | 0.519 | –
2 | NCI-H2087 | 0.931 | 0.948 | 0.982 | 0.527 | 1.06 | 1.22 | 1.02 | 0.286 | 0.759 | 1.24 | 0.874 | 0.33 | 0.967 | 0.898 | 0.466 | 0.481 | 0.566 | 0.586 | 0.491 | 0.839
3 | H3255 | 0.56 | 0.511 | 0.55 | 0.124 | 0.266 | 0.241 | 0.259 | 0.224 | 0.906 | 0.865 | 0.91 | 0.578 | 0.527 | 0.492 | 0.391 | 0.615 | 0.515 | 0.619 | 0.431 | 0.422
4 | NCI-H727 | 0.464 | 0.4 | 0.285 | 0.17 | 0.776 | 0.762 | 0.802 | 0.486 | 0.66 | 0.853 | 0.785 | 0.391 | 0.264 | 0.379 | 0.231 | 0.644 | 0.512 | 0.486 | 0.337 | 0.434
5 | NCI-H460 | 0.39 | 1.29 | – | 0.63 | 0.302 | 1.27 | 1.12 | 0.45 | 0.813 | 1.93 | – | 0.717 | 0.329 | 0.465 | 0.117 | 0.863 | 0.825 | 0.603 | 0.223 | 0.301
6 | NCI-H2228 | 1.31 | 0.788 | 0.914 | 0.674 | 1.15 | 1.17 | 1.04 | 0.728 | 1.01 | 1.18 | 1.14 | 0.817 | 0.324 | 0.384 | 0.329 | 0.55 | 0.443 | 0.567 | 0.237 | 0.251
7 | NCI-H647 | 0.976 | 1.41 | 1.39 | 0.715 | 0.836 | 1.07 | 1.26 | 0.819 | 0.712 | 1.16 | 1.63 | 0.986 | 0.327 | 0.462 | 0.336 | 0.695 | 0.643 | 0.856 | 0.533 | 0.493
8 | NCI-H2170 | 0.537 | 0.606 | 0.542 | 0.563 | 0.271 | 0.257 | 0.274 | 0.249 | – | – | – | – | 0.266 | 0.319 | 0.255 | 0.713 | 0.712 | 0.728 | 0.567 | 0.303
9 | LCLC-97TM1 | 0.287 | – | 0.527 | 0.238 | 1.06 | – | 1.12 | 0.425 | 0.636 | 0.576 | 0.906 | 0.466 | – | 0.182 | 0.156 | 0.461 | 0.634 | 0.561 | 0.353 | 0.176
10 | SK-MES-1 | 1.14 | 1.18 | 1.56 | 1.21 | 0.464 | 0.425 | 0.514 | 0.425 | – | – | – | – | 0.327 | 0.419 | 0.253 | 0.517 | 0.547 | 0.605 | 0.415 | 0.332
11 | NCI-H358 | – | – | – | – | 0.49 | 0.528 | 0.444 | 0.291 | – | – | – | – | 0.381 | 0.327 | 0.28 | 0.74 | 0.653 | 0.831 | 0.421 | 0.39
12 | A-427 | 0.93 | 0.843 | 0.991 | 0.664 | 1.21 | 1.28 | 1.05 | 0.878 | 1.04 | 0.99 | 0.982 | 0.852 | 0.69 | 0.635 | 0.512 | 0.507 | 0.621 | 0.462 | 0.265 | 0.732
13 | NCI-H1734 | 0.649 | 0.964 | 0.816 | 0.622 | 1.15 | 1.1 | 1.6 | 0.88 | 0.941 | 0.902 | 1.1 | 0.566 | 0.548 | 0.492 | 0.29 | 0.53 | 0.574 | 0.605 | 0.404 | 0.534
14 | LXF-289 | 0.97 | 1.08 | 0.918 | 0.631 | 0.845 | 0.934 | 1 | 0.737 | 0.853 | 1.12 | 1.12 | 0.833 | 0.891 | 0.825 | 0.559 | 0.875 | 0.967 | 0.873 | 0.634 | 0.724
